According to ChEMBL document CHEMBL1201861, “Genomics of Drug Sensitity in Cancer screening data, Wellcome Trust Sanger Institute”:

Key:
Assay in all cases: cells
KP-4 = type: functional, cell-based, Homo sapiens; conditions: Homo sapiens, KP-4; read-out: IC50;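 also: human KP-4 cells, with growth inhibition read out through a cell viability assay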
Description: SANGER: Inhibition of human KP-4 cell growth in a cell viability assay.

SK-N-DZ = type: functional, cell-based, Homo sapiens; conditions: Homo sapiens, SK-N-DZ;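 also: growth inhibition of the cancer cell line, read out through a viability assay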
Description: SANGER: Inhibition of human SK-N-DZ cell growth in a cell viability assay.

HuCCT-1 = type: functional, cell-based, Homo sapiens, HuCCT1; conditions: Homo sapiens, HuCCT-1;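 also: growth inhibition of HuCCT-1 cells, read out by a cell viability assay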
Description: SANGER: Inhibition of human HuCCT1 cell growth in a cell viability assay.

A673 = type: functional, cell-based, Homo sapiens; conditions: Homo sapiens, A673;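 also: growth inhibition of human A673 cells, read out through a cell viability assay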
Description: SANGER: Inhibition of human A673 cell growth in a cell viability assay.

NY = type: functional, cell-based, Homo sapiens; conditions: Homo sapiens, NY
Description: SANGER: Inhibition of human NY cell growth in a cell viability assay.

BT-20 = type: functional, cell-based, Homo sapiens; conditions: Homo sapiens, BT-20;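 also: cell viability assay measuring suppression of growth in human BT-20 cells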
Description: SANGER: Inhibition of human BT-20 cell growth in a cell viability assay.

MKN-45 = type: functional, cell-based, Homo sapiens; conditions: Homo sapiens, MKN-45;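 also: growth inhibition of human MKN-45 cells, measured with a cell viability assay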
Description: SANGER: Inhibition of human MKN45 cell growth in a cell viability assay.

MCF7 = type: functional, cell-based, Homo sapiens; conditions: Homo sapiens, MCF7;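 also: growth inhibition of human MCF7 cells, read out with a cell viability assay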
Description: SANGER: Inhibition of human MCF7 cell growth in a cell viability assay.

NCI-H2342 = type: functional, cell-based; conditions: Homo sapiens;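 also: growth inhibition of the cancer cell line, determined with a cell viability assay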
Description: SANGER: Inhibition of human NCI-H2342 cell growth in a cell viability assay.

SW780 = type: functional, cell-based, Homo sapiens; conditions: Homo sapiens, SW780;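 also: growth inhibition of the cells, read out with a cell viability assay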
Description: SANGER: Inhibition of human SW780 cell growth in a cell viability assay.

KYSE-520 cell line = type: functional, cell-based, Homo sapiens; conditions: Homo sapiens, KYSE-520;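 also: growth inhibition of human KYSE-520 cells, read out with a viability assay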
Description: SANGER: Inhibition of human KYSE-520 cell growth in a cell viability assay.

BB30-HNC = type: functional, cell-based, Homo sapiens; conditions: Homo sapiens, BB30-HNC;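 also: growth inhibition of the cultured cell line, read out by a cell viability assay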
Description: SANGER: Inhibition of human BB30-HNC cell growth in a cell viability assay.

YAPC = type: functional, cell-based, Homo sapiens; conditions: Homo sapiens, YAPC;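 also: growth inhibition of YAPC cells, measured with a cell viability assay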
Description: SANGER: Inhibition of human YAPC cell growth in a cell viability assay.

D-247MG = type: functional, cell-based, Homo sapiens; conditions: Homo sapiens, D-247MG
Description: SANGER: Inhibition of human D-247MG cell growth in a cell viability assay.

LCLC-97TM1 = type: functional, cell-based, Homo sapiens; conditions: Homo sapiens, LCLC-97TM1;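 also: cell viability assay measuring growth inhibition of human LCLC-97TM1 cells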
Description: SANGER: Inhibition of human LCLC-97TM1 cell growth in a cell viability assay.

KM12 = type: functional, cell-based, Homo sapiens; conditions: Homo sapiens, KM12;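 also: KM12 cell growth inhibition, read out with a cell viability assay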
Description: SANGER: Inhibition of human KM12 cell growth in a cell viability assay.

D283 Med = type: functional, cell-based, Homo sapiens; conditions: Homo sapiens, D283 Med
Description: SANGER: Inhibition of human D-283MED cell growth in a cell viability assay.

SCC-25 = type: functional, cell-based, Homo sapiens; conditions: Homo sapiens, SCC-25;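 also: growth inhibition of SCC-25 cells, measured with a cell viability assay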
Description: SANGER: Inhibition of human SCC-25 cell growth in a cell viability assay.

786-0 = type: functional, cell-based, Homo sapiens; conditions: Homo sapiens
Description: SANGER: Inhibition of human 786-0 cell growth in a cell viability assay.

Daoy = type: functional, cell-based, Homo sapiens; conditions: Homo sapiens, Daoy;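 also: daoy cell growth inhibition, read out as cell viability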
Description: SANGER: Inhibition of human Daoy cell growth in a cell viability assay.

EFM-19 = type: functional, cell-based, Homo sapiens; conditions: Homo sapiens, EFM-19;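 also: growth inhibition of human EFM-19 cells, measured in a cell viability assay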
Description: SANGER: Inhibition of human EFM-19 cell growth in a cell viability assay.

DJM-1 = type: functional, cell-based, Homo sapiens; conditions: Homo sapiens, DJM-1;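 also: growth inhibition of human DJM-1 cells, read out by a cell viability assay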
Description: SANGER: Inhibition of human DJM-1 cell growth in a cell viability assay.

MIA PaCa-2 = type: functional, cell-based, Homo sapiens; conditions: Homo sapiens, MIA PaCa-2;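 also: growth inhibition of MIA PaCa-2 cells, read out with a cell viability assay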
Description: SANGER: Inhibition of human MIA-PaCa-2 cell growth in a cell viability assay.

PSN1 = type: functional, cell-based, Homo sapiens; conditions: Homo sapiens, PSN1;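 also: suppression of growth of human PSN1 cells, read out by a cell viability assay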
Description: SANGER: Inhibition of human PSN1 cell growth in a cell viability assay.

J-RT3-T3-5 = type: functional, cell-based; conditions: Homo sapiens;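 also: cell viability assay measuring growth inhibition of human J-RT3-T3-5 cells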
Description: SANGER: Inhibition of human J-RT3-T3-5 cell growth in a cell viability assay.

OE19 = type: functional, cell-based, Homo sapiens; conditions: Homo sapiens, OE19;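 also: growth inhibition of OE19 cells, measured through a cell viability read-out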
Description: SANGER: Inhibition of human OE19 cell growth in a cell viability assay.

UMC-11 = type: functional, cell-based, Homo sapiens; conditions: Homo sapiens, UMC-11;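 also: growth inhibition of UMC-11 cells, read out with a cell viability assay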
Description: SANGER: Inhibition of human UMC-11 cell growth in a cell viability assay.

DK-MG = type: functional, cell-based, Homo sapiens; conditions: Homo sapiens, DK-MG;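 also: growth inhibition of DK-MG cells, read out with a cell viability assay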
Description: SANGER: Inhibition of human DK-MG cell growth in a cell viability assay.

LNCaP-Clone-FGC = type: functional, cell-based, Homo sapiens; conditions: Homo sapiens, LNCaP-Clone-FGC
Description: SANGER: Inhibition of human LNCaP-Clone-FGC cell growth in a cell viability assay.

EW-18 = type: functional, cell-based; conditions: Homo sapiens;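 also: growth inhibition of EW-18 cells, read out by a cell viability assay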
Description: SANGER: Inhibition of human EW-18 cell growth in a cell viability assay.

BB49-HNC = type: functional, cell-based, Homo sapiens; conditions: Homo sapiens, BB49-HNC;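 also: cell viability assay read-out, reported as inhibition of BB49-HNC cell growth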
Description: SANGER: Inhibition of human BB49-HNC cell growth in a cell viability assay.

ES8 = type: functional, cell-based, Homo sapiens; conditions: Homo sapiens, ES8;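 also: growth inhibition of human ES8 cells, read out with a cell viability assay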
Description: SANGER: Inhibition of human ES8 cell growth in a cell viability assay.

MV4-11 = type: functional, cell-based, MV-4-11; conditions: Homo sapiens;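 also: cell viability readout measuring growth inhibition of human MV-4-11 cells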
Description: SANGER: Inhibition of human MV-4-11 cell growth in a cell viability assay.

MKN-28 = type: functional, cell-based, Homo sapiens; conditions: Homo sapiens, MKN-28;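 also: cell viability assay read-out, IC50 reflects suppression of growth of human MKN-28 cells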
Description: SANGER: Inhibition of human MKN28 cell growth in a cell viability assay.

HSC-3 = type: functional, cell-based, Homo sapiens; conditions: Homo sapiens, HSC-3
Description: SANGER: Inhibition of human HSC-3 cell growth in a cell viability assay.

697 = type: functional, cell-based; conditions: Homo sapiens
Description: SANGER: Inhibition of human 697 cell growth in a cell viability assay.

T84 = type: functional, cell-based, Homo sapiens; conditions: Homo sapiens, T84;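 also: growth inhibition measured with a cell viability readout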
Description: SANGER: Inhibition of human T84 cell growth in a cell viability assay.

SW982 = type: functional, cell-based; conditions: Homo sapiens;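 also: growth inhibition of SW982 cells, read out with a cell viability assay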
Description: SANGER: Inhibition of human SW982 cell growth in a cell viability assay.

MEG-01 = type: functional, cell-based; conditions: Homo sapiens;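 also: growth inhibition of MEG-01 cells, read out by a cell viability assay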
Description: SANGER: Inhibition of human MEG-01 cell growth in a cell viability assay.

HO-1-N-1 = type: functional, cell-based, Homo sapiens; conditions: Homo sapiens, HO-1-N-1;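 also: growth inhibition of human HO-1-N-1 cells, read out with a cell viability assay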
Description: SANGER: Inhibition of human HO-1-N-1 cell growth in a cell viability assay.

SW1783 = type: functional, cell-based; conditions: Homo sapiens;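 also: cell growth inhibition measured with a viability assay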
Description: SANGER: Inhibition of human SW1783 cell growth in a cell viability assay.

COLO-800 = type: functional, cell-based, Homo sapiens; conditions: Homo sapiens, COLO-800;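 also: growth inhibition of COLO-800 cells, read out with a cell viability assay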
Description: SANGER: Inhibition of human COLO-800 cell growth in a cell viability assay.

NCI-H747 = type: functional, cell-based; conditions: Homo sapiens;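 also: growth inhibition of human NCI-H747 cells, read out by a cell viability assay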
Description: SANGER: Inhibition of human NCI-H747 cell growth in a cell viability assay.

KS-1 = type: functional, cell-based, Homo sapiens; conditions: Homo sapiens, KS-1;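 also: growth inhibition of KS-1 cells, read out with a cell viability assay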
Description: SANGER: Inhibition of human KS-1 cell growth in a cell viability assay.

EC-GI-10 = type: functional, cell-based, Homo sapiens; conditions: Homo sapiens, EC-GI-10
Description: SANGER: Inhibition of human EC-GI-10 cell growth in a cell viability assay.

TE-12 = type: functional, cell-based; conditions: Homo sapiens;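 also: growth inhibition of TE-12 cells, read out by a cell viability assay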
Description: SANGER: Inhibition of human TE-12 cell growth in a cell viability assay.

PANC-03-27 = type: functional, cell-based, Homo sapiens; conditions: Homo sapiens, PANC-03-27
Description: SANGER: Inhibition of human PANC-03-27 cell growth in a cell viability assay.

LB373-MEL-D = type: functional, cell-based, Homo sapiens; conditions: Homo sapiens, LB373-MEL-D;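 also: growth inhibition of the cell line, read out in a cell viability assay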
Description: SANGER: Inhibition of human LB373-MEL-D cell growth in a cell viability assay.

NEC8 = type: functional, cell-based, Homo sapiens; conditions: Homo sapiens, NEC8;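 also: growth inhibition of human NEC8 cells, read out by a cell viability assay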
Description: SANGER: Inhibition of human NEC8 cell growth in a cell viability assay.

NB7 = type: functional, cell-based; conditions: Homo sapiens;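 also: growth inhibition of NB7 cells, read out with a cell viability assay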
Description: SANGER: Inhibition of human NB7 cell growth in a cell viability assay.

NCI-H727 = type: functional, cell-based, Homo sapiens; conditions: Homo sapiens, NCI-H727;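 also: growth inhibition of human NCI-H727 cells, read out with a cell viability assay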
Description: SANGER: Inhibition of human NCI-H727 cell growth in a cell viability assay.

U-266 = type: functional, cell-based; conditions: Homo sapiens
Description: SANGER: Inhibition of human U-266 cell growth in a cell viability assay.

Nc1ccn([C@@H]2O[C@H](CO)[C@@H](O)[C@@H]2O)c(=O)n1 [CYTARABINE]
IC50 (KP-4): 0.536 µM | IC50 (SK-N-DZ): 1.07 µM | IC50 (HuCCT-1): > 2 µM | IC50 (A673): 0.224 µM | IC50 (NY): > 2 µM | IC50 (BT-20): > 2 µM | IC50 (MKN-45): 1.65 µM | IC50 (MCF7): > 2 µM | IC50 (NCI-H2342): > 2 µM | IC50 (SW780): 1.32 µM | IC50 (KYSE-520 cell line): > 2 µM | IC50 (BB30-HNC): > 2 µM | IC50 (YAPC): > 2 µM | IC50 (D-247MG): 1.09 µM | IC50 (LCLC-97TM1): 0.477 µM | IC50 (KM12): > 2 µM | IC50 (D283 Med): 0.36 µM | IC50 (SCC-25): > 2 µM | IC50 (786-0): 0.669 µM | IC50 (Daoy): 0.532 µM | IC50 (EFM-19): > 2 µM | IC50 (DJM-1): > 2 µM | IC50 (MIA PaCa-2): 1.49 µM | IC50 (PSN1): 0.193 µM | IC50 (J-RT3-T3-5): 0.0684 µM | IC50 (OE19): > 2 µM | IC50 (UMC-11): > 2 µM | IC50 (DK-MG): > 2 µM | IC50 (LNCaP-Clone-FGC): 1.31 µM | IC50 (EW-18): > 2 µM | IC50 (BB49-HNC): > 2 µM | IC50 (ES8): 0.124 µM | IC50 (MV4-11): 1.85 µM | IC50 (MKN-28): > 2 µM | IC50 (HSC-3): 0.4 µM | IC50 697: 0.0106 µM | IC50 (T84): > 2 µM | IC50 (SW982): 0.0912 µM | IC50 (MEG-01): > 2 µM | IC50 (HO-1-N-1): 0.691 µM | IC50 (SW1783): > 2 µM | IC50 (COLO-800): 0.425 µM | IC50 (NCI-H747): > 2 µM | IC50 (KS-1): > 2 µM | IC50 (EC-GI-10): 0.557 µM | IC50 (TE-12): > 2 µM | IC50 (PANC-03-27): 0.897 µM | IC50 (LB373-MEL-D): > 2 µM | IC50 (NEC8): 0.134 µM | IC50 (NB7): 1.52 µM | IC50 (NCI-H727): > 2 µM | IC50 (U-266): > 2 µM

O=C(c1cc(Cc2n[nH]c(=O)c3ccccc23)ccc1F)N1CCN(C(=O)C2CC2)CC1 [OLAPARIB]
IC50 (KP-4): > 5 µM | IC50 (SK-N-DZ): > 5 µM | IC50 (HuCCT-1): > 5 µM | IC50 (A673): > 5 µM | IC50 (NY): > 5 µM | IC50 (BT-20): > 5 µM | IC50 (MKN-45): > 5 µM | IC50 (MCF7): > 5 µM | IC50 (NCI-H2342): > 5 µM | IC50 (SW780): > 5 µM | IC50 (KYSE-520 cell line): > 5 µM | IC50 (BB30-HNC): > 5 µM | IC50 (YAPC): > 5 µM | IC50 (D-247MG): > 5 µM | IC50 (LCLC-97TM1): > 5 µM | IC50 (KM12): > 5 µM | IC50 (D283 Med): > 5 µM | IC50 (SCC-25): > 5 µM | IC50 (786-0): > 5 µM | IC50 (Daoy): > 5 µM | IC50 (EFM-19): > 5 µM | IC50 (DJM-1): > 5 µM | IC50 (MIA PaCa-2): > 5 µM | IC50 (PSN1): > 5 µM | IC50 (J-RT3-T3-5): > 5 µM | IC50 (OE19): > 5 µM | IC50 (UMC-11): > 5 µM | IC50 (DK-MG): > 5 µM | IC50 (LNCaP-Clone-FGC): > 5 µM | IC50 (EW-18): > 5 µM | IC50 (BB49-HNC): > 5 µM | IC50 (ES8): 1.72 µM | IC50 (MV4-11): 4.13 µM | IC50 (MKN-28): > 5 µM | IC50 (HSC-3): > 5 µM | IC50 697: 2.84 µM | IC50 (T84): > 5 µM | IC50 (SW982): > 5 µM | IC50 (MEG-01): > 5 µM | IC50 (HO-1-N-1): > 5 µM | IC50 (SW1783): > 5 µM | IC50 (COLO-800): 0.442 µM | IC50 (NCI-H747): > 5 µM | IC50 (KS-1): > 5 µM | IC50 (EC-GI-10): > 5 µM | IC50 (TE-12): > 5 µM | IC50 (PANC-03-27): > 5 µM | IC50 (NEC8): > 5 µM | IC50 (NB7): > 5 µM | IC50 (NCI-H727): > 5 µM | IC50 (U-266): > 5 µM

Cn1cc(C2=C(c3ccc(Cl)cc3Cl)C(=O)NC2=O)c2ccccc21 [SB-216763]
IC50 (KP-4): > 10 µM | IC50 (SK-N-DZ): > 10 µM | IC50 (HuCCT-1): > 10 µM | IC50 (A673): > 10 µM | IC50 (NY): > 10 µM | IC50 (BT-20): > 10 µM | IC50 (MKN-45): > 10 µM | IC50 (MCF7): > 10 µM | IC50 (NCI-H2342): > 10 µM | IC50 (SW780): > 10 µM | IC50 (KYSE-520 cell line): > 10 µM | IC50 (BB30-HNC): > 10 µM | IC50 (YAPC): > 10 µM | IC50 (D-247MG): > 10 µM | IC50 (LCLC-97TM1): > 10 µM | IC50 (KM12): > 10 µM | IC50 (D283 Med): > 10 µM | IC50 (SCC-25): > 10 µM | IC50 (786-0): > 10 µM | IC50 (Daoy): > 10 µM | IC50 (EFM-19): > 10 µM | IC50 (DJM-1): > 10 µM | IC50 (MIA PaCa-2): > 10 µM | IC50 (PSN1): > 10 µM | IC50 (J-RT3-T3-5): > 10 µM | IC50 (OE19): > 10 µM | IC50 (UMC-11): > 10 µM | IC50 (DK-MG): > 10 µM | IC50 (LNCaP-Clone-FGC): > 10 µM | IC50 (EW-18): > 10 µM | IC50 (BB49-HNC): > 10 µM | IC50 (ES8): > 10 µM | IC50 (MV4-11): 2.7 µM | IC50 (MKN-28): > 10 µM | IC50 (HSC-3): > 10 µM | IC50 697: > 10 µM | IC50 (T84): > 10 µM | IC50 (SW982): > 10 µM | IC50 (MEG-01): > 10 µM | IC50 (HO-1-N-1): > 10 µM | IC50 (SW1783): > 10 µM | IC50 (COLO-800): > 10 µM | IC50 (NCI-H747): > 10 µM | IC50 (KS-1): > 10 µM | IC50 (EC-GI-10): > 10 µM | IC50 (TE-12): > 10 µM | IC50 (PANC-03-27): > 10 µM | IC50 (LB373-MEL-D): > 10 µM | IC50 (NB7): > 10 µM | IC50 (NCI-H727): > 10 µM | IC50 (U-266): > 10 µM
